Assay results published in patent US20250163047A1, “HETEROCYCLIC COMPOUNDS, COMPOSITIONS THEREOF, AND METHODS OF TREATMENT THEREWITH” (BeiGene, Ltd., priority 2022, published 2025).
Like-named read-outs stand apart in the source and are kept apart here.

Assays:
Cbl-b (aa36-427) = target: T1, Cbl-b (aa36-427) (Homo sapiens, UniProt Q13191); experiment: Co-expressed Cbl-b with BirA biochemical assay (CBLB/E2-Ub binding, HTRF)
T1 construct: Cbl-b (aa36-427, in-house); made in house
Description: (§1) The assay in the absence of a Cbl-b/Cbl inhibitor, where phosphorylation of Cbl-b/Cbl by the Src kinase allows UbcH5B-Ub to bind to Cbl-b/Cbl and brings the Bodipy-Fluorescein tagged ubiquitin in proximity to the streptavidin-terbium bound to the N-terminal biotinylated Avi-tagged Cbl-b/Cbl. […] The lack of a FRET signal indicates Cbl-b/Cbl is inhibited by the Cbl-b/Cbl inhibitor.

Cbl (aa49-434) = target: T2, Cbl (aa49-434) (Homo sapiens, UniProt P22681); experiment: Co-expressed Cbl with BirA biochemical assay (CBL/E2-Ub binding, HTRF); settings: 0.6 nM Cbl co-expressed with BirA, read-out: co-express CBL/E2-Ub-binding assay IC50
T2 construct: Cbl (aa49-434, in-house); made in house
T2 sequence (P22681 49-434): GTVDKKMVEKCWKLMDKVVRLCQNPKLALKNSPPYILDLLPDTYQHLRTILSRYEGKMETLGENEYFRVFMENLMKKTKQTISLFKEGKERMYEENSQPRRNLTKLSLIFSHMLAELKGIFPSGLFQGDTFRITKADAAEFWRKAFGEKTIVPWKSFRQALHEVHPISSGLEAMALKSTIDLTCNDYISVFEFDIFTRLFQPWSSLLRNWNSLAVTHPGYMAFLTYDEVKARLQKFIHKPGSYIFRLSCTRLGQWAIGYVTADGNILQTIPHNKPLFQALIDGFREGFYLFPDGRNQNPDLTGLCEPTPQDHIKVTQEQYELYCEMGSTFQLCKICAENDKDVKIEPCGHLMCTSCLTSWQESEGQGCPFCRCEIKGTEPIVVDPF
Description: as §1

[1] = 0.6 nM Cbl-b co-expressed with BirA, HTRF, read-out: co-express CBLB/E2-Ub-binding assay IC50

T1 sequence (Q13191 36-427): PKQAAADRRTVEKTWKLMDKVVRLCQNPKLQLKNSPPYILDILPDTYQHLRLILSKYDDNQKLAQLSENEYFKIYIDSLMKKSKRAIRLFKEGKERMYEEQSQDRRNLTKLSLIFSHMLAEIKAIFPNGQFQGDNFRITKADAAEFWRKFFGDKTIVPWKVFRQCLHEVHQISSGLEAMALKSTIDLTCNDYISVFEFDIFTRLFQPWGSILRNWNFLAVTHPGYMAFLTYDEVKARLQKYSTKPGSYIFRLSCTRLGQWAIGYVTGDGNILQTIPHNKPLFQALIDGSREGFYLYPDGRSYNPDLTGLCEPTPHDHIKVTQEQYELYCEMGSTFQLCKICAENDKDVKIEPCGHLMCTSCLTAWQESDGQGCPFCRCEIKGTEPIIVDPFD

## C[C@H](NCc1cc(C(=O)Nc2cccc([C@]3(c4nncn4C)C[C@@H](CC#N)C3)c2)nc2cc[nH]c12)C1CC1 [Compound B28, N-(3-((1s,3R)-3-(cyanomethyl)-1-(4-methyl-4H-1,2,4-triazol-3-yl)cyclobutyl)phenyl)-7-((((S)-1-cyclopropylethyl)amino)methyl)-1H-pyrrolo[3,2-b]pyridine-5-carboxamide]
Cbl-b (aa36-427); [1]
  IC50: 0.8 nM
Cbl (aa49-434)
  IC50: 2.2 nM

## C[C@H]1CCCN(Cc2cc(C(=O)Nc3cccc([C@]4(c5nncn5C)C[C@@H](C)C4)c3)nc3cc[nH]c23)C1 [Compound B4, N-(3-((1s,3R)-3-methyl-1-(4-methyl-4H-1,2,4-triazol-3-yl)cyclobutyl)phenyl)-7-(((S)-3-methylpiperidin-1-yl)methyl)-1H-pyrrolo[3,2-b]pyridine-5-carboxamide]
Cbl-b (aa36-427); [1]
  IC50: 3 nM
Cbl (aa49-434)
  IC50: 12 nM

## Cn1cnnc1[C@]1(c2cncc(NC(=O)c3cc(CNC4(C)CC4)cn4ncnc34)c2)C[C@H](C)C1 [Compound A88, N-(5-((1s, 3s)-3-methyl-1-(4-methyl-4H-1,2,4-triazol-3-yl)cyclobutyl)pyridin-3-yl)-6-(((1-methylcyclopropyl)amino)methyl)-[1,2,4]triazolo[1,5-a]pyridine-8-carboxamide]
Cbl-b (aa36-427); [1]
  IC50: 4.4 nM
Cbl (aa49-434)
  IC50: 20 nM

## C[C@H](NCc1cc(C(=O)Nc2cccc([C@]3(c4nncn4C)C[C@@H](C)C3)c2)c2nccn2c1)C1CCCC1 [Compound A40, 6-((((S)-1-cyclopentylethyl)amino)methyl)-N-(3-((1s,3R)-3-methyl-1-(4-methyl-4H-1,2,4-triazol-3-yl)cyclobutyl)phenyl)imidazo[1,2-a]pyridine-8-carboxamide]
Cbl-b (aa36-427); [1]
  IC50: 1.6 nM
Cbl (aa49-434)
  IC50: 3.1 nM

## Cn1cnnc1[C@]1(c2cccc(NC(=O)c3cc(CNC4(C)CC4)cn4ncnc34)c2)C[C@H](C)C1 [Compound A87, N-(3-((1s, 3s)-3-methyl-1-(4-methyl-4H-1,2,4-triazol-3-yl)cyclobutyl)phenyl)-6-(((1-methylcyclopropyl)amino)methyl)-[1,2,4]triazolo[1,5-a]pyridine-8-carboxamide]
Cbl-b (aa36-427); [1]
  IC50: 1.5 nM
Cbl (aa49-434)
  IC50: 12 nM

## Cn1cnnc1[C@]1(c2cccc(NC(=O)c3cc(CNCC4CCC4)c4[nH]cc(F)c4n3)c2)C[C@H](C)C1 [Compound B36, 7-(((cyclobutylmethyl)amino)methyl)-3-fluoro-N-(3-((1s, 3s)-3-methyl-1-(4-methyl-4H-1,2,4-triazol-3-yl)cyclobutyl)phenyl)-1H-pyrrolo[3,2-b]pyridine-5-carboxamide]
Cbl-b (aa36-427); [1]
  IC50: 0.8 nM
Cbl (aa49-434)
  IC50: 2.3 nM

## Cn1cnnc1[C@]1(c2cccc(NC(=O)c3cc(CN[C@H]4C[C@@H](C)C4)c4[nH]ccc4n3)c2)C[C@H](C)C1 [Compound B33, N-(3-((1s, 3s)-3-methyl-1-(4-methyl-4H-1,2,4-triazol-3-yl)cyclobutyl)phenyl)-7-((((1s, 3s)-3-methylcyclobutyl)amino)methyl)-1H-pyrrolo[3,2-b]pyridine-5-carboxamide]
Cbl-b (aa36-427); [1]
  IC50: 0.9 nM
Cbl (aa49-434)
  IC50: 4.7 nM

## Cn1cnnc1C[C@]1(c2cccc(NC(=O)c3cc(CNCC4(C)CCCC4)cn4c(Cl)cnc34)c2)C[C@H](C#N)C1 [Compound A29, 3-chloro-N-(3-((1r, 3r)-3-cyano-1-((4-methyl-4H-1,2,4-triazol-3-yl)methyl)cyclobutyl)phenyl)-6-((((1-methylcyclopentyl)methyl)amino)methyl)imidazo[1,2-a]pyridine-8-carboxamide]
Cbl-b (aa36-427); [1]
  IC50: 1.3 nM
Cbl (aa49-434)
  IC50: 2.3 nM

## Cn1cnnc1[C@]1(c2cccc(NC(=O)c3cc(CNCC(C)(C)C)cn4ccnc34)c2)C[C@H](CC#N)C1 [Compound A32, N-(3-((1s, 3s)-3-(cyanomethyl)-1-(4-methyl-4H-1,2,4-triazol-3-yl)cyclobutyl)phenyl)-6-((neopentylamino)methyl)imidazo[1,2-a]pyridine-8-carboxamide]
Cbl-b (aa36-427); [1]
  IC50: 1.1 nM
Cbl (aa49-434)
  IC50: 4.9 nM

## Cn1cnnc1[C@]1(c2cccc(NC(=O)c3cc(CNCC4CCCC4)cn4c(Cl)cnc34)c2)C[C@H](C)C1 [Compound A68, 3-chloro-6-(((cyclopentylmethyl)amino)methyl)-N-(3-((1s, 3s)-3-methyl-1-(4-methyl-4H-1,2,4-triazol-3-yl)cyclobutyl)phenyl)imidazo[1,2-a]pyridine-8-carboxamide]
Cbl-b (aa36-427); [1]
  IC50: 0.9 nM
Cbl (aa49-434)
  IC50: 2.9 nM

## Cc1c[nH]c2c(CNCC(C)C)cc(C(=O)Nc3cncc([C@]4(c5nncn5C)C[C@@H](C)C4)c3)nc12 [Compound B21, 7-((isobutylamino)methyl)-3-methyl-N-(5-((1s, 3s)-3-methyl-1-(4-methyl-4H-1,2,4-triazol-3-yl)cyclobutyl)pyridin-3-yl)-1H-pyrrolo[3,2-b]pyridine-5-carboxamide]
Cbl-b (aa36-427); [1]
  IC50: 2.2 nM
Cbl (aa49-434)
  IC50: 7.5 nM

## CC(C)CNCc1cc(C(=O)Nc2cccc([C@]3(c4nncn4C)C[C@@H](CC#N)C3)c2)nc2c1NCC2(C)C [Compound C32, 3,3-dimethyl-7-{[(2-methylpropyl)amino]methyl}-N-{3-[(1s, 3s)-3-(cyanomethyl)-1-(4-methyl-1,2,4-triazol-3-yl)cyclobutyl]phenyl}-1H,2H-pyrrolo[3,2-b]pyridine-5-carboxamide]
Cbl-b (aa36-427); [1]
  IC50: 1.87 nM
Cbl (aa49-434)
  IC50: 7.72 nM

## C[C@H](NCc1cc(C(=O)Nc2cncc([C@]3(c4nncn4C)C[C@@H](C)C3)c2)nc2sccc12)C1CCC1 [Compound B42, 4-({[(1S)-1-cyclobutylethyl]amino}methyl)-N-{5-[(1r, 3s)-3-methyl-1-(4-methyl-1,2,4-triazol-3-yl)cyclobutyl]pyridin-3-yl}thieno[2,3-b]pyridine-6-carboxamide]
Cbl-b (aa36-427); [1]
  IC50: 2.1 nM
Cbl (aa49-434)
  IC50: 4.7 nM

## Cn1cnnc1[C@]1(c2cccc(NC(=O)c3cc(CNCC4CCCC4)cn4ccnc34)c2)C[C@H](C)C1 [Compound A42, 6-(((cyclopentylmethyl)amino)methyl)-N-(3-((1s, 3s)-3-methyl-1-(4-methyl-4H-1,2,4-triazol-3-yl)cyclobutyl)phenyl)imidazo[1,2-a]pyridine-8-carboxamide]
Cbl-b (aa36-427); [1]
  IC50: 1.8 nM
Cbl (aa49-434)
  IC50: 7.6 nM

## Cn1cnnc1[C@]1(c2cncc(NC(=O)c3cc(CNC4(C)CCC4)cn4ccnc34)c2)C[C@H](C)C1 [Compound A81, N-(5-((1s, 3s)-3-methyl-1-(4-methyl-4H-1,2,4-triazol-3-yl)cyclobutyl)pyridin-3-yl)-6-(((1-methylcyclobutyl)amino)methyl)imidazo[1,2-a]pyridine-8-carboxamide]
Cbl-b (aa36-427); [1]
  IC50: 1.8 nM
Cbl (aa49-434)
  IC50: 8.2 nM

## Cn1cnnc1[C@]1(c2cncc(NC(=O)c3cc(CNC4(C)CC4)cc4c(F)cnn34)c2)C[C@H](C)C1 [Compound A93, 3-fluoro-N-(5-((1s, 3s)-3-methyl-1-(4-methyl-4H-1,2,4-triazol-3-yl)cyclobutyl)pyridin-3-yl)-5-(((1-methylcyclopropyl)amino)methyl)pyrazolo[1,5-a]pyridine-7-carboxamide]
Cbl-b (aa36-427); [1]
  IC50: 1.6 nM
Cbl (aa49-434)
  IC50: 5.2 nM

## Cc1cnc2c(C(=O)Nc3cncc([C@]4(c5nncn5C)C[C@@H](C)C4)c3)cc(CN[C@H]3C[C@@H](C)C3)cn12 [Compound A86, 3-methyl-N-(5-((1s, 3s)-3-methyl-1-(4-methyl-4H-1,2,4-triazol-3-yl)cyclobutyl)pyridin-3-yl)-6-((((1s, 3s)-3-methylcyclobutyl)amino)methyl)imidazo[1,2-a]pyridine-8-carboxamide]
Cbl-b (aa36-427); [1]
  IC50: 2.7 nM
Cbl (aa49-434)
  IC50: 13 nM

## Cn1cnnc1[C@]1(c2cccc(NC(=O)c3cc(CN[C@H]4CCC(F)(F)C4)cn4ccnc34)c2)C[C@H](CC#N)C1 [Compound A23, N-(3-((1s,3R)-3-(cyanomethyl)-1-(4-methyl-4H-1,2,4-triazol-3-yl)cyclobutyl)phenyl)-6-((((S)-3,3-difluorocyclopentyl)amino)methyl)imidazo[1,2-a]pyridine-8-carboxamide]
Cbl-b (aa36-427); [1]
  IC50: 1.4 nM
Cbl (aa49-434)
  IC50: 11.4 nM

## CC(C)CNCc1cc(C(=O)Nc2cncc([C@]3(c4nncn4C)C[C@@H](C)C3)c2)nc2c(Cl)c[nH]c12 [Compound B55, 3-chloro-7-((isobutylamino)methyl)-N-(5-((1s, 3s)-3-methyl-1-(4-methyl-4H-1,2,4-triazol-3-yl)cyclobutyl)pyridin-3-yl)-1H-pyrrolo[3,2-b]pyridine-5-carboxamide]
Cbl-b (aa36-427)
  IC50: 1.6 nM
Cbl (aa49-434)
  IC50: 14 nM

## C[C@H](NCc1cc(C(=O)Nc2cccc([C@]3(c4nncn4C)C[C@@H](CC#N)C3)c2)nc2cc[nH]c12)C1CCC1 [Compound B31, N-(3-((1s,3R)-3-(cyanomethyl)-1-(4-methyl-4H-1,2,4-triazol-3-yl)cyclobutyl)phenyl)-7-((((S)-1-cyclobutylethyl)amino)methyl)-1H-pyrrolo[3,2-b]pyridine-5-carboxamide]
Cbl-b (aa36-427); [1]
  IC50: 0.8 nM
Cbl (aa49-434)
  IC50: 0.7 nM

## Cc1c[nH]c2c(CNC3(C)CC3)cc(C(=O)Nc3cccc([C@]4(c5nncn5C)C[C@@H](CC#N)C4)c3)nc12 [Compound B30, N-(3-((1s, 3s)-3-(cyanomethyl)-1-(4-methyl-4H-1,2,4-triazol-3-yl)cyclobutyl)phenyl)-3-methyl-7-(((1-methylcyclopropyl)amino)methyl)-1H-pyrrolo[3,2-b]pyridine-5-carboxamide]
Cbl-b (aa36-427); [1]
  IC50: 1.4 nM
Cbl (aa49-434)
  IC50: 8.8 nM
